According to article PMC3951225, “Cytotoxic Sesquiterpene Lactones from Kauna lasiophthalma Griseb” (Scientia Pharmaceutica, 2014):
Entries after “also recorded” stand apart in the source; their conditions may differ.

How the values were obtained:
Type in all cases: cell-based, human
[1] = test system: HCC1937 cells; assay: MTT cytotoxicity dose-response assay, HCC1937; conditions: 72 h treatment, a/b/c = one, two, three or more dose-response curves
Description: (§1) The L56Br-C1 cell line was established at the Department of Oncology, Clinical Sciences, Lund University, Sweden. The JIMT-1 cell line was purchased from the German Collection of Microorganisms and Cell Cultures (Braunschweig, Germany) and the MCF-7, SK-BR-3, HCC1937, and MCF-10A cells were obtained from the American Tissue Type Culture Collection (Manassas, VA, USA). The cell lines were cultured as monolayers at 37°C in a humidified incubator with 5% CO2 in air. The MCF-10A cells have a population doubling time of 15 hours, the JIMT-1 cells 24 hours, and the other four cell lines around 35 hours.
(§2) The L56Br-C1, MCF-7, SK-BR-3, and HCC1937 cells were cultured as described by Holst et al. JIMT-1 cells were cultured in DMEM/Ham’s F12 medium supplemented with 10% fetal calf serum, non-essential amino acids (1 mM), insulin (10 μg/ml), penicillin (100 U/ml), and streptomycin (100 μg/ml). MCF-10A cells were maintained in RPMI 1640 medium supplemented with 10% heat-inactivated fetal calf serum, non-essential amino acids (1 mM), insulin (10 μg/ml), epidermal growth factor (20 ng/ml), cholera toxin (50 ng/ml), hydrocortisone (250 ng/ml), penicillin (100 U/ml), and streptomycin (100 μg/ml). The MCF-10A and JIMT-1 cell lines were sub-cultured twice a week, while the L56Br-C1, MCF-7, SK-BR-3, and HCC1937 cells were sub-cultured once a week with an additional change of growth medium once a week.
(§3) Stock solutions ([…]) of the compounds were made in 100% DMSO. These were further diluted in PBS to obtain the correct concentrations used for the MTT assay. Appropriate DMSO controls were used. In general, the highest DMSO concentration was 0.1%, however, when treating with 100 μM and starting from a […] in 100% DMSO, a final concentration of 1% DMSO was used as the control.
(§4) The MTT assay was performed as previously described. Briefly, the cells were trypsinized and counted in a hemocytometer. Aliquots of 180 μl cell suspensions containing 3000 (MCF-10A) and 6000 (MCF-7, SK-BR-3, JIMT-1, L56Br-C1, and HCC1937) cells were seeded in the wells of 96-well plates. Compounds were added 24 hours after seeding to allow the attachment of cells. A concentration range between 0.1 to 100 μM was used in the MTT assays and appropriate DMSO controls. At 72 h of drug treatment, 20 μl of MTT solution (5 mg/ml MTT in PBS) was added to each well and the 96-well plates were returned to the CO2 incubator for 1 hour. The MTT-containing medium was removed. The blue formazan product formed by the reduction in live attached cells was dissolved by adding 100 μl of 100% DMSO per well after removal of the MTT-containing medium. The plates were swirled gently at room temperature for 10 minutes to dissolve the precipitate. Absorbance was monitored at 540 nm in a Labsystems iEMS Reader MF (Labsystems Oy, Helsinki, Finland) using the DeltaSoft II v.4.14 software (Biometallics Inc., Princeton, NJ, USA). Dose-response curves were drawn based on the % of the control in Excel. The IC50 was deduced from the curves.

[2] = test system: JIMT-1 cells; assay: MTT cytotoxicity dose-response assay, JIMT-1; conditions: 72 h treatment, a/b/c = one, two, three or more dose-response curves
Description: as §1, §2, §3, §4

[3] = test system: L56Br-C1 cells; assay: MTT cytotoxicity dose-response assay, L56Br-C1; conditions: 72 h treatment, a/b/c = one, two, three or more dose-response curves
Description: as §1, §2, §3, §4

[4] = test system: MCF-7 cells; assay: MTT cytotoxicity dose-response assay, MCF-7; conditions: 72 h treatment, a/b/c = one, two, three or more dose-response curves
Description: as §1, §2, §3, §4

[5] = test system: SK-BR-3 cells; assay: MTT cytotoxicity dose-response assay, SK-BR-3; conditions: 72 h treatment, a/b/c = one, two, three or more dose-response curves
Description: as §1, §2, §3, §4

[6] = MTT cytotoxicity dose-response assay, MCF-10A (non-cancerous); conditions: human, MCF-10A cells (normal-like breast epithelial cell line), 72 h treatment, a/b/c = one, two, three or more dose-response curves
Description: as §1, §2, §3, §4

[7] = test system: MCF-10A cells; assay: as above; conditions: normal-like breast epithelial cell line, 72 h treatment, a/b/c = one, two, three or more dose-response curves
Description: as §1, §2, §3, §4

[8] = test system: breast cancer cell lines HCC1937, JIMT-1, L56Br-C1, MCF-7, and SK-BR-3; assay: MTT assay, panel of five breast cancer cell lines; conditions: breast cell lines, comparison among the tested compounds
Description: The anticancer activities of sesquiterpenes 1, 3, 6–9, 11, 12, 14, and 16 were assessed in five breast-cancer cell lines, HCC1937, JIMT-1, L56Br-C1, MCF-7, and SK-BR-3, and compared with the cytotoxicity in the breast-derived non-cancerous cell line MCF-10A using the MTT colorimetric assay. […] 16 is an unsaturated ester and differs in that respect from the other compounds, but the lower activity of 3 compared to the similar compounds was unexpected. Costunolide (1) differs from the eudesmane sesquiterpenes by having the unsaturated lactone fused with a macrocyclic system instead of a cyclohexane ring, and the tension of the lactone ring is likely to be lower in 1. […] The difference in the activities of 7 and 8 may depend on the higher lipophilicity of 8, facilitating its absorption into the cells. In 11 and 14, the presence of a second Michael acceptor function may influence the activity. […] MCF-7 has a normal wild type p53 gene, which the MCF-10A cells also have, while the others have a mutated p53.
as §3, §4

C=C1C(=O)O[C@@H]2[C@H]3C(C)=CC[C@@H](O)[C@]3(C)CC[C@@H]12 [Compound 9, santamarin]
IC50 ([1]; Homo sapiens, HCC1937, 72 h): 8.1 ± 1.8 µM
IC50 [2]: 7.2 µM
IC50 ([2]; Homo sapiens, JIMT-1, 72 h): 6.9 µM
IC50 ([3]; Homo sapiens, 72 h): 12.3 ± 5.5 µM
IC50 ([4]; Homo sapiens, MCF7, 72 h): 9.7 ± 0.9 µM
IC50 ([5]; Homo sapiens, SK-BR-3, 72 h): 3.1 ± 0.6 µM
IC50 at 72 h [6]: 17 µM

C=C1C(=O)OC2C1CCC1(C)C(=O)C=CC(C)(O)C21 (centres unmarked) [Compound 11, 11,13-didehydrovulgarin]
IC50 [1]: 7.8 µM
IC50 ([1]; Homo sapiens, HCC1937, 72 h): 4.8 µM
IC50 [2]: 13 µM
IC50 ([2]; Homo sapiens, JIMT-1, 72 h): 10 µM
IC50 ([3]; Homo sapiens, 72 h): 3.6 µM
IC50 [4]: 18 µM
IC50 ([4]; Homo sapiens, MCF7, 72 h): 10.1 µM
IC50 ([5]; Homo sapiens, SK-BR-3, 72 h): 4.2 ± 2.1 µM
IC50 at 72 h [6]: 24 µM
IC50 [7]: 21 µM

C=C1C(=O)O[C@H]2[C@H]1CCC(C)=C1[C@@H](OC(C)=O)[C@H]3O[C@@]3(C)[C@@H]12 [Compound 12, 2β-acetoxy-3α,4α-epoxy-3,4-dihydrokauniolide]
IC50 [1]: 7.8 µM
IC50 ([1]; Homo sapiens, HCC1937, 72 h): 6 µM
IC50 [2]: 10.1 µM
IC50 ([2]; Homo sapiens, JIMT-1, 72 h): 7.1 µM
IC50 [3]: 10.1 µM
IC50 ([3]; Homo sapiens, 72 h): 6 µM
IC50 [4]: 8.3 µM
IC50 ([4]; Homo sapiens, MCF7, 72 h): 7.1 µM
IC50 ([5]; Homo sapiens, SK-BR-3, 72 h): 4.2 ± 1.1 µM

C=C1C(=O)O[C@@H]2[C@H]3C(C)=CC(=O)C3=C(C)CC[C@@H]12 [Compound 14, dehydroleucodin]
IC50 [1]: 5.2 µM
IC50 ([1]; Homo sapiens, HCC1937, 72 h): 3 µM
IC50 [2]: 8.1 µM
IC50 ([2]; Homo sapiens, JIMT-1, 72 h): 7.5 µM
IC50 [3]: 10 µM
IC50 ([3]; Homo sapiens, 72 h): 5.8 µM
IC50 [4]: 4.3 µM
IC50 ([4]; Homo sapiens, MCF7, 72 h): 3.3 µM
IC50 ([5]; Homo sapiens, SK-BR-3, 72 h): 2.5 ± 0.4 µM
IC50 at 72 h [6]: 20 µM
IC50 [7]: 23 µM

C=C(C(=O)OC)C1CCC2(C)C(O)CCC(=C)C2C1O (centres unmarked) [Compound 16, baynol C]
IC50 ([1]; Homo sapiens, HCC1937, 72 h): 24 µM
IC50 [2]: 23 µM
IC50 ([2]; Homo sapiens, JIMT-1, 72 h): 13 µM
IC50 ([3]; Homo sapiens, 72 h): 16 µM
IC50 ([4]; Homo sapiens, MCF7, 72 h): 27.4 ± 17.2 µM
IC50 ([5]; Homo sapiens, SK-BR-3, 72 h): 9.9 ± 3 µM
IC50 at 72 h [6]: 29 µM
Anticancer activity / relative potency in words [8]: lowest activity

COC(=O)C(N)CSCC1C(=O)OC2C1CCC1(C)C(O)CC=C(C)C21 (centres unmarked) [Compound 21]
IC50 ([1]; Homo sapiens, HCC1937, 72 h): 100 µM
IC50 ([2]; Homo sapiens, JIMT-1, 72 h): > 100 µM
IC50 ([3]; Homo sapiens, 72 h): 73 µM
IC50 ([4]; Homo sapiens, MCF7, 72 h): > 100 µM
IC50 [5]: 40 µM
IC50 ([5]; Homo sapiens, SK-BR-3, 72 h): 51 µM
IC50 at 72 h [6]: 41 µM
Anticancer activity / relative potency in words [8]: significantly less potent; also recorded: inactive or considerably less potent
